Assay results reported in patent US20160311795A1, “PYRIMIDINE DIAMINE DERIVATIVES AS INHIBITORS OF CYTOSOLIC HSP90” (CALASIA PHARMACEUTICALS, INC., priority 2012, published 2016).
Like-named read-outs stand apart in the source and are kept apart here.

How the values were obtained:
human full length Hsp90 [1] = molecular target: T1, human full length Hsp90 (Homo sapiens, UniProt P07900); test: Determination of the Kd value of FITC-labeled geldanamycin for Hsp90 (fluorescence polarization); type: binding; conditions: with or without 50 nM Hsp90
T1 construct: amino acid residues 1 to 732 of human Hsp90 (GenBank: BC121062.2); made in house; host or cells: E. coli BL21DE3 (pET15b)
Procedure: Eighty five micro liters (μl) of a binding assay buffer (20 mM HEPES, pH 7.5, 50 mM KCl, 5 mM MgCl2, 20 mM sodium molybdate, 0.01% NP-40, 2 mM DTT, and 0.1 mg/mL BSA) were added to a 96 well black plate placed on ice. DMSO (3 μl) was added to the wells, followed by the addition of either 10 μl human full length HSP90 (50 nM final concentration) diluted in the binding assay buffer or 10 μl of the buffer alone. The plates were incubated at 4° C. on a plate shaker for 24 hours. Two μl of 50× GA-FITC titrate within a final range of 160 nM to 0.3125 nM in DMSO were added to all wells, followed by incubation at ambient temperature for 1 h with agitation. Fluorescence polarization readings were taken at excitation and emission wavelengths of 480 and 500 nm respectively. Measurements were performed in duplicate. Specific binding was calculated by subtracting polarization values in the presence of
Hsp90 from those in the absence of Hsp90. GA-FITC Kd values were calculated using Prism software (GraphPad Software, Inc., San Diego, Calif.).
A 10 point concentration response curve for binding of GM-FITC to Hsp90 was obtained. The concentration of GM-FITC used ranged from 160 nM to 0.3125 nM, which produced a saturable concentration response curve. […] The value of binding maximum (Bmax) was determined to be 188 nM.

[2] = Rat CNS exposure (plasma and CNS tissue concentration, LC-MS/MS); type: in vivo; conditions: 10 mg/kg
Procedure: Test subjects (Sprague-Dawley rats) were housed in sterile vivarium with controlled temperature, humidity and 12-hour light-dark cycle (7:00 lights-on and 19:00 lights-off). Following procurement, rats were acclimated to the vivarium facility for 7 days prior to study day-1 with ad libitum access to both diet and water. Bedding was changed twice weekly. […] On study day-1 rats were administered vehicle or Hsp90 inhibitor formulation. Following administrations of test article formulation, blood and CNS tissue was collected at 6.5 h post-dosed by a necropsy procedure. In detail, CNS tissue was isolated from the Vehicle and dose groups, divided into 2 mid-sagittal sections, placed in tarred 1 mL micro-centrifuge tubes, weighed and immediately frozen on dry ice. Blood was isolated by a cardiac puncture procedure from the Vehicle and Hsp90 inhibitor dose groups. From these samples, plasma was isolated in plasma separator tubes containing ethylenediaminetetraacetic acid as the anticoagulant. HSP90 inhibitor concentrations in plasma and CNS tissue were determined using LC-MS/MS based methods following a 60% acetonitrile extraction.

human full length Hsp90 [3] = molecular target: T1, human full length Hsp90; test: Fluorescence polarization Hsp90 competitive binding assay (GM-FITC displacement); conditions: for inhibition at 1 µM: compound at 1 μM, read-out: Biochemical Potency % Inhibition at 1 μM; for inhibition at 10 µM: compound at 10 μM, read-out: Biochemical Potency % Inhibition at 10 μM
Procedure: Hsp90 binding assays was performed generally according to the procedure described in J. Biomol. […] Hsp90 inhibitors were solubilized in DMSO at a stock concentration of 50 mM. […] Eighty five μl of binding assay buffer (20 mM HEPES, pH-7.5, 50 mM KCl, 5 mM MgCl2, 20 mM sodium molybdate, 0.01% NP-40, 2 mM DTT, and 0.1 mg/ml BSA) was added to the wells of a 96 well black plate placed on ice. […] Next, 10 μl either binding assay buffer alone (control) or human full length Hsp90 protein diluted in the binding assay buffer was added to achieve a final concentration of 50 nM. The plates were incubated at 4° C. on a plate shaker for 24 h. Two μl of 50× GM-FITC (9 nM final) in DMSO was added to all wells and the plate was incubated at ambient temperature for 1 h with shaking. Fluorescence polarization readings were taken in duplicate at excitation and emission wavelengths of 480 nm and 500 nm respectively. Specific binding was calculated by subtracting polarization values in the presence of Hsp90 from those in the absence of Hsp90. To calculate percent inhibition the specific binding values obtained for GA-FITC in the presence of compound were compared to values for GA-FITC in the absence of compound (DMSO only).

[4] = Table II, binding affinities ranked by potency
[5] = Table II, binding affinities ranked by potency, read-out: IC50

SMILES | binding maximum (Bmax) (human full length Hsp90 [1]) | Kd (human full length Hsp90 [1]; 160 nM to 0.3125 nM probe) | partitioning CNS versus plasma [2] | IC50 (human full length Hsp90 [3]; Table 1, 50 nM Hsp90, 9 nM GM-FITC, read-out: Biochemical Potency IC50) | Ki (human full length Hsp90 [3]; [4]) | IC50 (human full length Hsp90 [3]; [5]) | inhibition at 1 µM (human full length Hsp90 [3]) | inhibition at 10 µM (human full length Hsp90 [3])
CO[C@H]1/C=C\C=C(/C)C(=O)NC2=CC(=O)C(NCCCCCCNC(=S)Nc3ccc(-c4c5ccc(=O)cc-5oc5cc(O)ccc45)c(C(=O)O)c3)=C(C[C@@H](C)C[C@H](OC)[C@H](O)[C@@H](C)/C=C(\C)[C@@H]1OC(N)=O)C2=O [GA-FITC] | 188 nM | 0.0031 µM |  |  |  |  |  | 
Cc1cn(-c2cc(F)c(C(N)=O)c(N[C@H]3CCOC3)c2)c2c1C(=O)CC(C)(C)C2 [SNX-0723, reference compound] |  |  | selectively partitions into the CNS compartment compared to plasma |  |  |  |  | 
COc1c(C)cnc(CN(CCc2cccc(Br)c2)c2cc(Cl)nc(N)n2)c1C [SBI-0640613, N4-(3-Bromophenethyl)-6-chloro-N4-((4-methoxy-3,5-dimethylpyridin-2-yl)methyl)pyrimidine-2,4-diamine] |  |  |  | 0.097 µM | 0.024 µM | 0.097 µM |  | 
Cc1cnc(CNc2cc(Cl)nc(N)n2)c(C)c1Cl [SBI-0639217, 6-Chloro-N4-((4-chloro-3,5-dimethylpyridin-2-yl)methyl)pyrimidine-2,4-diamine] |  |  |  |  | 0.3 µM | 1.2 µM | 47% | 93%
Cc1cnc(CNc2cc(Cl)nc(N)n2)c(C)c1I [SBI-0639220, 6-Chloro-N4-((4-iodo-3,5-dimethylpyridin-2-yl)methyl)pyrimidine-2,4-diamine] |  |  |  |  | 0.11 µM | 0.44 µM | 66% | 98%
